Results taken from patent publication US20240139162A1, “Benzophenanthridine Alkaloids and Their Methods of Use” (Chengdu Anticancer Bioscience, LTD., priority 2019, published 2024).
Values joined by “and” are separate entries in the source; they are usually repeats but may differ in a detail not shown here. Equal values may be shown once. “Also recorded” adds a separate entry of the source. Read-outs that look alike come from different tables or passages of the source.

How the values were obtained:
RPE-MBC cells [1] = assay: IC50 in RPE-MBC cells (Table 1); type: cell-based, human
Description: Retinal pigment epithelial cells transformed by ectopic MYC and Bcl-2 expression (RPE-MBC cells) have been described previously (e.g., Goga et al., 2007, Nat. Med., 13 (7):820-827) and were cultured in DMEM supplemented with 5% fetal bovine serum in a humidified incubator that was maintained at 5% CO2. For screening for bioactive fractions, cells were cultured in 96-well plates, and exposed to crude extracts, partially purified fractions or pure compounds at the concentrations indicated in the figure legends. Exposure was for 24 or 48 hours before analysis of cells for either an arrest in mitosis using an inverted microscope or for a change in DNA content after 4′,6′-diamidino-2-phenylindole (DAPI) staining by fluorescence microscopy.
The RPE series were derived from human retinal pigment epithelium and then stably transfected with a hTERT expression construct for immortalization. The resulting cell line was then engineered to overexpress the MYC and BCL2 oncogenes, generating the RPE MBC cell line. This cell line mimics cancer cells that overexpress MYC and Bcl2, and readily forms viable polyploid cells when cytokinesis is prevented.
(§1) Cells were split, plated in appropriate culture media and allowed to adhere. After 18 hours, corynoline and acetylcorynoline were added to a cell line selected from below. At 72 h or 96 h, MTT was added and at 75 h or 99 h, the A570 nm was recorded. The concentration ranged from 0.02 μM to 40 μM.
(§2) The effect of the compounds chelidonine and protopine on cell division was assessed similarly to corynoline and acetylcorynoline above. As described in Example 6 above, as cells enter and become arrested in mitosis, they detach from the plate surface and appear as rounded cells with a smooth surface membrane. RPE-MBC cells (ectopically expressing oncogenes MYC and Bcl2) were treated with DMSO, chelidonine and protopine, and compared against controls Michael's ketone (MK) and taxol.

RPE-MBH cells = assay: IC50 in RPE-MBH cells (Table 1); type: cell-based, human
Description: as §1
(§3) The following RPE cell lines were used in these studies: RPE NEO, RPE MBH, RPE MBC, RPE MA, RPE MP, RPE MI, and RPE MYC Nick. This RPE series were derived from human retinal pigment epithelium and then stably transfected with an hTERT expression construct for immortalization. The resulting cell line was then engineered to overexpress the MYC oncogene (RPE-MYC) or a Neomycin selection marker gene (RPE-NEO). In RPE-MYC cells, a variety of other oncogenes such as Myr-AKT, BCL2, ID1 and PI3K^E45k were further introduced individually to generate the cell lines RPE MA, RPE MBC, RPE MI, RPE MP, respectively. As a control, H2BGFP was introduced into RPE-MYC cells to generate RPE MBH.
as §2

RPE-A19 cells = assay: IC50 in RPE-A19 cells (Table 2); type: cell-based, human
Description: as §1, §2

RPE-Neo cells = assay: IC50 in RPE-Neo cells (Table 2); type: cell-based, human
Description: as §1, §3, §2

Rat1A cells = assay: IC50 in Rat1A cells (Table 2); type: cell-based
Description: as §1
(§4) The following Rat1A cell lines were used in these studies: Rat1 A C, Rat1A MYC, Rat1A E2F1, and Rat1A E2F3. The cell line was then engineered as control (C), to overexpress the MYC oncogene (Rat1A-MYC), to overexpress the E2F1 oncogene (Rat1A-E2F1), or to overexpress the E2F3 oncogene (Rat1A-E2F3).
as §2

3T3 MEF cells = assay: IC50 in 3T3 MEF cells (Table 2); type: cell-based
Description: as §1, §2

IMR 90 cells = assay: IC50 in IMR 90 cells (Table 2); type: cell-based; settings: Homo sapiens, IMR-90, 72 h
Description: as §1, §2

RPE-MBC cells [2] = assay: Mitotic arrest (cell round-up, phospho-Histone H3) and polyploidy (DAPI) assay; type: cell-based, human; settings: for mitotic arrest: 24 hours after treatment; for polyploidy (DAPI staining): 48 hours after treatment; for persistence of the arrest of cells in mitosis: within 48-hour treatment
Description: For screening for bioactive fractions, cells were cultured in 96-well plates, and exposed to crude extracts, partially purified fractions or pure compounds at the concentrations indicated in the figure legends. Exposure was for 24 or 48 hours before analysis of cells for either an arrest in mitosis using an inverted microscope or for a change in DNA content after 4′,6′-diamidino-2-phenylindole (DAPI) staining by fluorescence microscopy.
(§5) Cells were cultured on coverslips in a 6-well plate, fixed with 4% paraformaldehyde and then permeabilized with 0.3% Triton X-100 in PBS. Primary antibody was detected with Texas-Red-conjugated secondary antibodies that were purchased from Jackson ImmunoResearch. After immunostaining, cells were mounted on microscope slides with 4′,6′-diamidino-2-phenylindole (DAPI)-containing Vectashield mounting solution (Vector Laboratories) for detection of fluorescence with an EVOS FL fluorescence microscope (ThermoFisher).
Cellular “round-up” was used as a surrogate marker for mitotic arrest and could easily be assayed using an inverted tissue culture microscope. […] Mitotic arrest was judged by cell round-up observed under an inverted tissue culture microscope 24 hours after exposing cells to the library.
As cells enter and become arrested in mitosis, they detach from the plate surface and appear as rounded cells with smooth surface membrane, distinct from detached cells that are undergoing programmed cell death. Simple visual screening method was used to assay thousands of extracts. […] To identify bioactive components that are able to interfere with mitosis, 3 kg of Corydalis longicalcarata rhizome were recollected and performed bioactivity-guided extraction, isolation, and purification. The air dried and powdered material was extracted with 70% ethanol assisted by exposure to ultrasonic waves.

RPE MBC cells = assay: Spindle pole assembly by β-tubulin / Histone H3ser10P immunofluorescence; type: cell-based, human
Description: Microtubule assembly, specifically spindle pole assembly, was altered by treatment with acetylcorynoline. RPE MBC cells were treated with acetylcorynoline and Histone H3 Serine 10 Phosphorylation (Histone H3ser10p, shown in FIG. 4 and FIG. 5 in red), β-tubulin (green) and DNA (blue) was analyzed by immunofluorescence microscopy. Histone H3ser10P was used to determine the cells that were in early mitosis (e.g., prometaphase or metaphase). β-tubulin was used to examine microtubule localization and spindle assembly within the cells.
Similarly to corynoline and acetylcorynoline above, it was determined that microtubule assembly, specifically spindle pole assembly, was altered by treatment with chelidonine.

[3] = test system: all tested cell lines (RPE, Rat1A and human cancer cell lines); assay: MTT assay, IC50 across all of the cell lines tested; type: cell-based; settings: for IC50: Homo sapiens
[4] = test system: all tested cell lines (RPE, Rat1A and human cancer cell lines); settings: positive control, read-out: known IC50 value; cited from earlier work
[5] = test system: RPE cell lines (RPE NEO, RPE MBH, RPE MBC, RPE MA, RPE MP, RPE MI, RPE MYC Nick); assay: MTT assay, RPE cell lines expressing oncogenes; type: cell-based, human; settings: RPE cell lines compared with RPE NEO control (FIG. 11)
[6] = test system: Rat1A cell lines (Rat1A C, Rat1A MYC, Rat1A E2F1, Rat1A E2F3); assay: MTT assay, Rat1A cell lines expressing oncogenes; type: cell-based; settings: Rat1A cell lines compared to Rat1A C (FIG. 12)
Description: as §1, §4

aurora-B kinase = assay: Phosphorylation of Histone 3 at Ser10 as surrogate of aurora-B kinase activity; type: cell-based
Description: as §5

[7] = RPE-MBH, treatment 72 h, read-out: IC50
[8] = RPE-A19, treatment 72 h, read-out: IC50
[9] = 3T3 MEF, treatment 72 h, read-out: IC50

Structure (SMILES) | IC50 (RPE-MBH cells; [7]) | IC50 (RPE-A19 cells; [8]) | IC50 (3T3 MEF cells; [9]) | IC50 (RPE-MBC cells [1]; Homo sapiens, 72 h) | IC50 (RPE-MBH cells; Homo sapiens, 72 h) | IC50 (RPE-A19 cells; Homo sapiens, 72 h) | IC50 (RPE-Neo cells; Homo sapiens, 72 h) | IC50 (IMR 90 cells) | IC50 (Rat1A cells; 72 h) | IC50 (3T3 MEF cells; Mus musculus, MEF, 72 h) | mitotic arrest (RPE-MBC cells [2]) | polyploidy (DAPI staining) (RPE-MBC cells [2]) | persistence of the arrest of cells in mitosis (RPE-MBC cells [2]) | further results
CN(C)c1ccc(C(=O)c2ccc(N(C)C)cc2)cc1 [MK, Michael's ketone, reference compound] | 0.303 µM | 0.087 µM | 3.48 µM | – | – | – | – | – | – | – | – | – | – | IC50 (RPE-MBC cells [1]; RPE-MBC, treatment 72 h, read-out: IC50): 0.207 µM; IC50 (RPE-Neo cells; RPE-Neo, treatment 72 h, read-out: IC50): 0.805 µM; IC50 (Rat1A cells; Rat1A, treatment 72 h, read-out: IC50): 1.65 µM
CN1Cc2c(ccc3c2OCO3)[C@@H]2[C@H]1c1cc3c(cc1C[C@@H]2O)OCO3 [Chelidonine, 5bR,6S,7,12bS,13,14-hexahydro-13-methyl-[1,3]benzodioxolo[5,6-c]-1,3-dioxolo[4,5-i]phenanthridin-6-ol] | – | – | – | > 40 µM | 2.32 µM | 1.85 µM | 1.11 µM | 2.43 µM | 1.11 µM | 1.52 µM | Nearly all cells entered and arrested in mitosis | polyploidy was observed; also recorded: demonstrates polyploidy | transient | spindle formation (β-tubulin staining) (RPE MBC cells; 24 hours of treatment): multipolar spindles were formed; also recorded: multipolar spindle formation in mitosis; centrosomes (β-tubulin staining) (RPE MBC cells; analyzed after 24 or 48 hours): centrosome amplification and centrosome declustering
CN1CCc2cc3c(cc2C(=O)Cc2ccc4c(c2C1)OCO4)OCO3 [protopine, 7-Methyl-6,8,9,16-tetrahydrobis[1,3]benzodioxolo[4,5-c:5′,6′-g]azecin-15(7H)-one] | – | – | – | – | – | – | – | – | – | – | Nearly all cells entered and arrested in mitosis | Polyploidy was observed | transient | –
CC[C@]1(O)C[C@@H]2CN(CCc3c([nH]c4ccccc34)[C@@](C(=O)OC)(c3cc4c(cc3OC)N(C)[C@H]3[C@@](O)(C(=O)OC)[C@H](OC(C)=O)[C@]5(CC)C=CCN6CC[C@]43[C@@H]65)C2)C1 [vinblastine, reference compound] | – | – | – | – | – | – | – | – | – | – | – | without causing accumulation of polyploid cells | persistent arrest of cells in mitosis | –
CC(=O)O[C@H]1C(=O)[C@@]2(C)[C@H]([C@H](OC(=O)c3ccccc3)[C@]3(O)C[C@H](OC(=O)[C@H](O)[C@@H](NC(=O)c4ccccc4)c4ccccc4)C(C)=C1C3(C)C)[C@]1(OC(C)=O)CO[C@@H]1C[C@@H]2O [Taxol, paclitaxel] | 22.1 µM and 22.7 µM | 15.7 µM and 13 µM | 0.062 µM and 0.096 µM | – | – | – | – | – | – | – | – | without causing accumulation of polyploid cells | persistent arrest of cells in mitosis | IC50 ([3]; across all of the cell lines tested (FIG. 9), MTT at 72 h or 96 h, read-out: IC50): < 0.02 µM; IC50 (RPE-MBC cells [1]; Homo sapiens, RPE-MBC, treatment 72 h, read-out: IC50): > 40 µM; IC50 (RPE-MBH cells; Homo sapiens, 72 h, RPE-MBH, treatment 72 h, read-out: IC50): 31.4 µM; IC50 (RPE-A19 cells; Homo sapiens, 72 h, RPE-A19, treatment 72 h, read-out: IC50): 13.4 µM; IC50 (IMR 90 cells; IMR 90, treatment 72 h, read-out: IC50): 6.98 µM; IC50 (3T3 MEF cells; Mus musculus, MEF, 72 h, 3T3 MEF, treatment 72 h, read-out: IC50): 0.075 µM; IC50 [4]: < 0.02 µM
CN1Cc2c(ccc3c2OCO3)[C@@]2(C)[C@@H](O)Cc3cc4c(cc3[C@@H]12)OCO4 [Corynoline, (5bR)-5bα,13-Dimethyl-5bα,6,7,12bα,13,14-hexahydro[1,3]benzodioxolo[5,6-c]-1,3-dioxolo[4,5-i]phenanthridine-6β-ol] | – | – | – | 8.87 µM | 15.1 µM | 10.6 µM | 7.06 µM | > 40 µM | 8.61 µM | 12.2 µM | can arrest mitosis within 24 hours of treatment | induce polyploidy at 48 hours | transient | IC50 [3]: 1 to 31 µM; IC50 compared with the other compound ([3]; all different cell lines): lower than acetylcorynoline; change of IC50 after overexpression of oncogenic factors [5]: all declined, with the exception of RPE MA; change of IC50 after overexpression of oncogenes [6]: increased in the Rat1 A MYC cell line; mitotic arrest (RPE-MBC cells [2]; listed as corynoline): Nearly all cells entered and arrested in mitosis; polyploidy (DAPI staining) (RPE-MBC cells [2]; listed as corynoline): Polyploidy was observed; also recorded: demonstrates polyploidy; mitotic arrest and polyploidy, dependence on concentration (RPE-MBC cells [2]; FIG. 15): concentration-dependent; phosphorylation of Histone 3 at Ser10 (aurora-B kinase): not affected
